Earlier results, collected in patent US10194693B2, “Aerosol generating device” (FONTEM HOLDINGS 1 B.V., priority 2013, dated 2019).

CN1CCCC1c1cccnc1 (centres unmarked) [nicotine]
time to peak increments of plasma nicotine concentration (smoking a cigarette): ≤ 10 min
peak increments of plasma nicotine concentration (smoking a single cigarette): 5 to 30 ng/mL
